Assays:
[1] = candidate solvents for polyurethane and biocide; cited from earlier work
[2] = system: latex-allergic or sensitive users; experiment: Gentian violet admixed with liquid latex: allergic reactions in users; settings: gentian violet admixed with liquid latex prior to membrane formation; 1.5% by weight solution preferred
Text: According to one aspect of the invention, gentian violet is admixed with liquid latex prior to membrane formation by dipping or spraying techniques. A wide variety of different concentrations may be used, but a 1.5% by weight solution of gentian violet is preferred. […] Other proteing binding biocides may be employed in place of or in combination with gentian violet.

| SMILES | Hydrogen Bonding [1] | allergic reactions in latex-allergic or sensitive users [2] |
| --- | --- | --- |
| CCC(=O)CC [Diethyl ketone] | medium |  |
| CC(=O)N(C)C [Dimethyl acetamide (DMF), Dimethyl acetamide] | medium |  |
| C[S+](C)[O-] [Dimethyl sulfoxide (DMS), Dimethyl sulfoxide] | medium |  |
| CCOCCO [Ethylene glycol monoethyl ether] | medium |  |
| CCC(C)=O [Methyl ethyl ketone] | medium |  |
| C1CCOC1 [Tetrahydrofuran (THF), Tetrahydrofuran] | medium |  |
| CN(C)c1ccc(C(=C2C=CC(=[N+](C)C)C=C2)c2ccc(N(C)C)cc2)cc1 [gentian violet] |  | minimize allergic reactions |
| Cc1cccc(O)c1 [m-Cresol] | strong |  |

— patent US20010018095A1, “Method of forming a membrant, especially a latex or polymer membrane, including multiple discrete layers” (priority 1987, published 2001)
